Experimental data: patent publication US20030162777A1, “Novel N-acylated heterocycles” (Recordati S.A., priority 2001, published 2003)

molecular target: T1, human 5HT1A-serotonergic receptor (Homo sapiens, UniProt P08908); assay: Radioligand binding to recombinant 5-HT1A receptors; details: [3H]8-OH-DPAT 1 nM, membranes of HeLa cells with human 5-HT1A receptor; Ki from IC50 by Cheng & Prusoff; read-out: Binding affinity for 5HT1A receptors, Ki
T1 construct: expressed in transfected cells; host or cells: HeLa (human cell line), stably transfected; cell membranes used
T1 sequence (P08908 1-422): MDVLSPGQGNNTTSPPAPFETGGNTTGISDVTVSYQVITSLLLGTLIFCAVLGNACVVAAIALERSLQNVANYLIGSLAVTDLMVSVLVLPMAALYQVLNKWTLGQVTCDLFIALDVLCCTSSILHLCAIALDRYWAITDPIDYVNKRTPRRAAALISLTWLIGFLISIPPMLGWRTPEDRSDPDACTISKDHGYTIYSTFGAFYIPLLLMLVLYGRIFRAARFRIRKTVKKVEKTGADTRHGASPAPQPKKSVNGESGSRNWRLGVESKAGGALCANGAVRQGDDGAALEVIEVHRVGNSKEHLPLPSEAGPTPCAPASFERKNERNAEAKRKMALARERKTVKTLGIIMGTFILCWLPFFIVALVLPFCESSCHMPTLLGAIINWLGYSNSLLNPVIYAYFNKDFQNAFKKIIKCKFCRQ
Outline: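 Membranes from HeLa cells stably expressing human 5-HT1A incubated 30 min at 30 °C with 1 nM [3H]8-OH-DPAT and compound in 50 mM Tris-HCl pH 7.4, 2.5 mM MgCl2, […] pargyline. Nonspecific binding defined with 10 μM 5-HT; filtration readout, IC50 converted to Ki via Cheng–Prusoff.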

Ki	Compound
0.0046 µM	O=C(C1CCCCC1)N1c2ccccc2CCC1CN1CCN(c2ccc(F)cc2[N+](=O)[O-])CC1 (stereo not shown) [Example 72A7, 1-(1-Cyclohexanecarbonyl-1,2,3,4-tetrahydroquinolin-2-ylmethyl)-4-(4-fluoro-2-nitrophenyl)piperazine]
0.0209 µM	O=S(=O)(c1ccc(F)cc1)N1c2ccccc2CCC1CN1CCN(c2cccc3[nH]ccc23)CC1 (stereo not shown) [Example 70A4, 1-[1-(4-Fluorophenylsulphonyl)-1,2,3,4-tetrahydroquinoline-2-ylmethyl]-4-(4-indolyl)piperazine]
0.0071 µM	N#Cc1ccc(C(=O)N2c3ccccc3CCC2CN2CCN(c3cccc4[nH]ccc34)CC2)cc1 (stereo not shown) [Example 68A3, 1-[1-(4-Cyanobenzoyl)-1,2,3,4-tetrahydroquinoline-2-ylmethyl]-4-(4-indolyl)piperazine]
0.0311 µM	O=C(C1CCCCC1)N1c2ccccc2CCC1CN1CCN(Cc2ccccc2Br)CC1 (stereo not shown) [Example 35A29, 1-(2-Bromobenzyl)-4-(1-cyclohexanecarbonyl-1,2,3,4-tetrahydroquinoline-2-ylmethyl)piperazine]
0.0177 µM	O=C(C1CCCCC1)N1c2ccccc2CC1CN1CCN(c2cccc3[nH]ccc23)CC1 (stereo not shown) [Example 48, 1-(1-Cyclohexanecarbonyl-2,3-dihydroindole-2-ylmethyl)-4-(4-indolyl)piperazine]
0.0057 µM	CCOc1cc(Cl)ccc1N1CCN(CC2CCc3ccccc3N2C(=O)C2CCCCC2)CC1 (stereo not shown) [Example 62A3, 1-(4-Chloro-2-ethoxyphenyl)-4-(1-cyclohexanecarbonyl-1,2,3,4-tetrahydroquinoline-2-ylmethyl)piperazine]
0.0078 µM	O=C(C1CCCCC1)N1c2ccccc2CCC1CN1CCN(c2ccccn2)CC1 (stereo not shown) [Example 72A93, 1-(1-Cyclohexanecarbonyl-1,2,3,4-tetrahydroquinolin-2-ylmethyl)-4-(2-pyridyl)piperazine]
0.0207 µM	O=C(COCc1ccccc1)N1c2ccccc2CCC1CN1CCN(c2cccc3[nH]ccc23)CC1 (stereo not shown) [Example 68A44, 1-(4-Indolyl)-4-[1-(2-phenylmethoxyacetyl)-1,2,3,4-tetrahydroquinoline-2-ylmethyl]piperazine]
0.0457 µM	O=C(C1CCCCC1)N1c2ccccc2CCC1CN1CCCC(Cc2ccccc2)C1 (single isomer, unassigned) [Example 59, 3-Benzyl-1-(1-cyclohexanecarbonyl-1,2,3,4-tetrahydroquinoline-2-ylmethyl)piperidine]
0.0061 µM	O=C(C1CCCCC1)N1c2ccccc2CCC1CN1CCC(c2c(F)cccc2Cl)CC1 (stereo not shown) [Example 72A53, 4-(2-Chloro-6-fluorophenyl)-1-(1-cyclohexanecarbonyl-1,2,3,4-tetrahydroquinolin-2-ylmethyl)piperidine]
0.0142 µM	O=C(c1cccc(Cl)c1)N1c2ccccc2CCC1CN1CCN(c2cccc3[nH]ccc23)CC1 (stereo not shown) [Example 68A6, 1-[1-(3-Chlorobenzoyl)-1,2,3,4-tetrahydroquinoline-2-ylmethyl]-4-(4-indolyl)piperazine]
0.0312 µM	Cc1ccc(N2CCN(CC3CCc4ccccc4N3C(=O)C3CCCCC3)CC2)c2cc[nH]c12 (stereo not shown) [Example 62A5, 1-(1-Cyclohexanecarbonyl-1,2,3,4-tetrahydroquinoline-2-ylmethyl)-4-(7-methyl-4-indolyl)piperazine]
0.0051 µM	O=C(c1ccc[nH]1)N1c2ccccc2CCC1CN1CCN(c2cccc3c2OCCO3)CC1 (stereo not shown) [Example 76A2, 1-(2,3-Dihydrobenzo[1,4]dioxin-5-yl)-4-[1-(2-pyrrolylcarbonyl)-1,2,3,4-tetrahydroquinolin-2-ylmethyl]piperazine]
0.0032 µM	O=C(C1CCCCC1)N1c2ccccc2CCC1CN1CCN(c2ncccc2C(F)(F)F)CC1 (stereo not shown) [Example 72A6, 1-(1-Cyclohexanecarbonyl-1,2,3,4-tetrahydroquinolin-2-ylmethyl)-4-(3-trifluoromethylpyridin-2-yl)piperazine]
0.0041 µM	O=C(c1cccs1)N1c2ccccc2CCC1CN1CCN(c2cccc3[nH]ccc23)CC1 (stereo not shown) [Example 68A19, 1-(4-Indolyl)-4-[1-(2-thienylcarbonyl)-1,2,3,4-tetrahydroquinoline-2-ylmethyl]piperazine]
0.0188 µM	COc1ccc(S(=O)(=O)N2c3ccccc3CCC2CN2CCN(c3cccc4[nH]ccc34)CC2)cc1 (stereo not shown) [Example 70A2, 1(4-Indolyl)-4-[1-(4-methoxyphenylsulphonyl)-1,2,3,4-tetrahydroquinoline-2-ylmethyl]piperazine]
0.0408 µM	COCCC(=O)N1c2ccccc2CCC1CN1CCN(c2cccc3[nH]ccc23)CC1 (stereo not shown) [Example 11, 1-[1-(3-Methoxypropionyl)-1,2,3,4-tetrahydroquinoline-2-ylmethyl]-4-(4-indolyl)piperazine]
0.0062 µM	COc1cccc(N2CCN(CC3CCc4ccccc4N3C(=O)C3CCCCC3)CC2)n1 (stereo not shown) [Example 35A35, 1-(1-Cyclohexanecarbonyl-1,2,3,4-tetrahydroquinoline-2-ylmethyl)-4-(6-methoxy-2-pyridinyl)piperazine]
0.0189 µM	O=C(C1CCCCC1)N1c2ccc(Br)cc2CCC1CN1CCN(c2cccc3[nH]ccc23)CC1 (stereo not shown) [Example 34, 1-(6-Bromo-1-cyclohexanecarbonyl-1,2,3,4-tetrahydroquinoline-2-ylmethyl)-4-(4-indolyl)piperazine]
0.041 µM	O=C(C1CCCCC1)N1c2ccc(O)cc2CCC1CN1CCN(c2cccc3[nH]ccc23)CC1 (stereo not shown) [Example 50, 1-(1-Cyclohexanecarbonyl-6-hydroxy-1,2,3,4-tetrahydroquinoline-2-ylmethyl)-4-(4-indolyl)piperazine]
0.015 µM	O=C(C1CCCCC1)N1c2ccccc2CCC1CN1CCC(c2cccc(Cl)c2Cl)CC1 (stereo not shown) [Example 72A51, 1-(1-Cyclohexanecarbonyl-1,2,3,4-tetrahydroquinolin-2-ylmethyl)-4-(2,3-dichlorophenyl)piperidine]
0.0428 µM	O=C(c1ccc(C(F)(F)F)cc1)N1c2ccccc2CCC1CN1CCN(c2cccc3[nH]ccc23)CC1 (stereo not shown) [Example 68A23, 1-(4-Indolyl)-4-[1-(4-trifluoromethylbenzoyl)-1,2,3,4-tetrahydroquinoline-2-ylmethyl]piperazine]
0.0192 µM	O=C(C1CCC1)N1c2ccccc2CCC1CN1CCN(c2cccc3c2OCCO3)CC1 (stereo not shown) [Example 76A8]
0.0146 µM	O=C(c1ccco1)N1c2ccccc2CCC1CN1CCN(c2nccc3ccccc23)CC1 (stereo not shown) [Example 75A4, 1-[1-(2-Furancarbonyl)-1,2,3,4-tetrahydroquinolin-2-ylmethyl]-4-(1-isoquinolinyl)piperazine]
0.03 µM	O=C(C1CCC(O)CC1)N1c2ccccc2CCC1CN1CCN(c2cccc3[nH]ccc23)CC1 (stereo not shown) [Example 44, (Z)-1-[1-(4-Hydroxycyclohexanecarbonyl)-1,2,3,4-tetrahydroquinoline-2-ylmethyl]-4-(4-indolyl)piperazine]
0.0023 µM	COc1cc(F)ccc1N1CCN(CC2CCc3ccc(Cl)cc3N2C(=O)C2CCCCC2)CC1 (stereo not shown) [Example 57, 1-(7-Chloro-1-cyclohexanecarbonyl-1,2,3,4-tetrahydroquinoline-2-ylmethyl)-4-(4-fluoro-2-methoxyphenyl)piperazine]
0.0239 µM	COc1cc(F)ccc1N1CCN(CC2CCc3cc(-c4c(C)noc4C)ccc3N2C(=O)C2CCCCC2)CC1 (stereo not shown) [Example 64, 1-[1-Cyclohexanecarbonyl-6-(3,5-dimethylisoxazol-4-yl)-1,2,3,4-tetrahydroquinoline-2-ylmethyl]-4-(4-fluoro-2-methoxyphenyl)piperazine]

Compound	Ki
1-(4-Chloro-2-1-propoxyphenyl)-4-(1-cyclohexanecarbonyl-1,2,3,4-tetrahydroquinoline-2-ylmethyl)piperazine [Example 60A]	0.0101 µM
CC(C)(C)OC(=O)n1cc(CC(=O)N2c3ccccc3CCC2CN2CCN(c3cccc4[nH]ccc34)CC2)c2ccccc21 (stereo not shown) [Example 71A2, 1-[1-[2-(1-tert-Butoxycarbonylindol-3-yl)acetyl]-1,2,3,4-tetrahydroquinoline-2-ylmethyl]-4-(4-indolyl]piperazine]	0.092 µM
O=C(Cc1ccc(C(F)(F)F)cc1)N1c2ccccc2CCC1CN1CCN(c2cccc3[nH]ccc23)CC1 (stereo not shown) [Example 68A31]	0.0418 µM
1-(2-Cyclopropylacetyl-1,2,3,4-tetrahydroquinoline-2-ylmethyl)-4-(4-indolyl)piperazine [Example 68A11]	0.0068 µM
O=C(C1CCCCC1)N1c2ccccc2CCC1CN1CCN(c2ccccc2OS(=O)(=O)C(F)(F)F)CC1 (stereo not shown) [Example 79, 1-(1-Cyclohexanecarbonyl-1,2,3,4-tetrahydroquinoline-2-ylmethyl)-4-(2-triluoromethanesulphonyloxyphenyl)piperazine]	0.0045 µM
O=C(Cc1ccsc1)N1c2ccccc2CCC1CN1CCN(c2cccc3c2OCCO3)CC1 (stereo not shown) [Example 76A7, 1-(2,3-Dihydrobenzo[1,4]dioxin-5-yl)-4-[1-[2-(3-thienyl)acetyl]-1,2,3,4-tetrahydroquinolin-2-ylmethyl]piperazine]	0.0085 µM
O=C(Cc1cccs1)N1c2ccccc2CCC1CN1CCN(c2cccc3c2OCCO3)CC1 (stereo not shown) [Example 76A6, 1-(2,3-Dihydrobenzo[1,4]dioxin-5-yl)-4-[1-[2-(2-thienyl)acetyl]-1,2,3,4-tetrahydroquinolin-2-ylmethyl]piperazine]	0.0055 µM
